The record followed here is the supplement of paper PMC11281043.

Settings in all cases: exposure: 6-8 hpf to 5 dpf, scored at 6 dpf
Assay [1] deals with Danio rerio embryo/larva. Description: max % larvae with craniofacial defects across tested concentrations; higher = more toxic; extreme values may be limits of the assay.
Assay [2] deals with Danio rerio embryo/larva. Description: max % larvae with spinal defects across tested concentrations; higher = more toxic; extreme values may be limits of the assay.
The subject of assay [3] is Danio rerio embryo/larva. Description: max % larvae with tail defects across tested concentrations; higher = more toxic; extreme values may be limits of the assay.
For assay [4], the system named is Danio rerio embryo/larva. Nature of the assay: max % larvae with blood pooling across tested concentrations; higher = more toxic; extreme values may be limits of the assay.
In assay [5] the test system is Danio rerio embryo/larva. Nature of the assay: max % larvae with pigmentation defects across tested concentrations; higher = more toxic.
Assay [6] concerns Danio rerio embryo/larva. Nature of the assay: max % larvae with edema across tested concentrations; higher = more toxic; extreme values may be limits of the assay.
For assay [7], the system named is Danio rerio embryo/larva. Nature of the assay: max % larvae with uninflated swim bladder across tested concentrations; higher = more toxic; extreme values may be limits of the assay.
The subject of assay [8] is Danio rerio embryo/larva. Nature of the assay: max % larvae with abnormal position across tested concentrations; higher = more toxic; extreme values may be limits of the assay.
Assay [9] concerns Danio rerio embryo/larva. Description: max % larvae unhatched across tested concentrations; max tested concentration (log10 uM): 2; higher = more toxic.
For assay [10], the system named is Danio rerio embryo/larva. Description: max % larvae with any abnormality across tested concentrations; max tested concentration (log10 uM): 2; higher = more toxic; extreme values may be limits of the assay.

With `FC(F)C(F)(F)COCC1CO1` (stereo unspecified) [((2,2,3,3-Tetrafluoropropoxy)methyl)oxirane] (max tested concentration (log10 uM): 2), the max % larvae in the assay on Danio rerio embryo/larva [1] stood at 16.7%; with Danio rerio embryo/larva [2], 0%; in the assay on Danio rerio embryo/larva [3], 0%; in the assay with Danio rerio embryo/larva [4] it was 0%; with Danio rerio embryo/larva [5], 0%; in the assay with Danio rerio embryo/larva [6], 31.2%. Further, the max % larvae with Danio rerio embryo/larva [7] was 91.7%; in the assay with Danio rerio embryo/larva [8] it was 8.33%.

On to `O=C(O)C=C(C(F)(F)F)C(F)(F)F` [3,3-Bis(trifluoromethyl)-2-propenoic acid] (max tested concentration (log10 uM): 2), for which the max % larvae was determined as 0% in the assay on Danio rerio embryo/larva [1]; 0% with Danio rerio embryo/larva [2]; 0% in the assay on Danio rerio embryo/larva [3]; 0% with Danio rerio embryo/larva [4]; 0% in the assay on Danio rerio embryo/larva [5]; 2.08% in the assay with Danio rerio embryo/larva [6]. Besides, the max % larvae in the assay on Danio rerio embryo/larva [7] and in the assay with Danio rerio embryo/larva [8] was 0% in each case.

For the compound `O=C(O)C(F)(F)C(F)(F)OC(F)(F)F` [Perfluoro-3-methoxypropanoic acid] (max tested concentration (log10 uM): 2), the max % larvae with Danio rerio embryo/larva [1] worked out at 0%; in the assay on Danio rerio embryo/larva [2], 0%; in the assay on Danio rerio embryo/larva [3], 0%; in the assay on Danio rerio embryo/larva [4], 16.7%; in the assay on Danio rerio embryo/larva [5] it was 0%; in the assay on Danio rerio embryo/larva [6] it was 8.33%. For the same compound, the max % larvae with Danio rerio embryo/larva [7] and in the assay with Danio rerio embryo/larva [8] was 0% throughout.

As to `OCC(F)(F)OC(F)(F)C(F)(F)OC(F)(F)C(F)(F)OC(F)(F)CO` [1H,1H,11H,11H-Perfluorotetraethylene glycol], the “max % larvae unhatched across tested concentrations” value with Danio rerio embryo/larva [9] was found to be 0%. In addition, the max % larvae in the assay on Danio rerio embryo/larva [10] stood at 100%.

On to `O=C(O)C(F)(F)C(F)(F)C(F)(F)C(F)(F)C(F)(F)C(F)(F)C(F)(F)F` [Potassium perfluorooctanoate] (max tested concentration (log10 uM): 2), for which the max % larvae with Danio rerio embryo/larva [1] worked out at 9.09%; in the assay on Danio rerio embryo/larva [2] it was 0%; in the assay with Danio rerio embryo/larva [3], 2.27%; in the assay on Danio rerio embryo/larva [4], 9.09%; in the assay on Danio rerio embryo/larva [5], 0%; in the assay on Danio rerio embryo/larva [6], 9.09%. In addition, the figures for the max % larvae with Danio rerio embryo/larva [7] and in the assay with Danio rerio embryo/larva [8] were 9.09% and 2.27%, respectively.

Regarding `O=S(=O)(OCC(F)(F)F)C(F)(F)C(F)(F)C(F)(F)C(F)(F)F` [2,2,2-Trifluoroethyl perfluorobutanesulfonate] (max tested concentration (log10 uM): 2), the max % larvae with Danio rerio embryo/larva [1] was found to be 9.09%; in the assay with Danio rerio embryo/larva [2], 0%; in the assay with Danio rerio embryo/larva [3], 4.55%; in the assay with Danio rerio embryo/larva [4], 31.8%; in the assay on Danio rerio embryo/larva [5], 0%; in the assay on Danio rerio embryo/larva [6], 54.5%. For the same compound, the max % larvae turned out to be 90.9% in the assay with Danio rerio embryo/larva [7] and 11.4% in the assay on Danio rerio embryo/larva [8].

Take `O=S(=O)(O)C(F)(F)C(F)(F)C(F)(F)C(F)(F)C(F)(F)C(F)(F)C(F)(F)C(F)(F)F` [Potassium perfluorooctanesulfonate] (max tested concentration (log10 uM): 2): the max % larvae with Danio rerio embryo/larva [1] was found to be 100%; in the assay on Danio rerio embryo/larva [2], 50%; with Danio rerio embryo/larva [3], 100%; with Danio rerio embryo/larva [4] it was 33.3%; with Danio rerio embryo/larva [5] it was 0%; with Danio rerio embryo/larva [6], 100%. Further, the max % larvae was found to be 100% with Danio rerio embryo/larva [7] and 50% in the assay on Danio rerio embryo/larva [8].

Consider `FC(F)(F)C(F)(F)C(F)(F)CC1CO1` (stereo unspecified) [1H,1H-Heptafluorobutyl epoxide] (max tested concentration (log10 uM): 2), for which the max % larvae in the assay with Danio rerio embryo/larva [1] is 9.09%; in the assay on Danio rerio embryo/larva [2], 0%; with Danio rerio embryo/larva [3], 9.09%; in the assay with Danio rerio embryo/larva [4], 9.09%; with Danio rerio embryo/larva [5], 0%; in the assay on Danio rerio embryo/larva [6] it was 9.09%. The results for the max % larvae with Danio rerio embryo/larva [7] and in the assay on Danio rerio embryo/larva [8] were 9.09% and 0%, respectively.

`Cc1ccc(S(=O)(=O)OCC(F)(F)C(F)(F)C(F)(F)C(F)(F)C(F)(F)C(F)F)cc1` [1H,1H,7H-Perfluoroheptyl 4-methylbenzenesulfonate] (max tested concentration (log10 uM): 2): the max % larvae with Danio rerio embryo/larva [1] is 16.7%; in the assay on Danio rerio embryo/larva [2], 4.17%; in the assay with Danio rerio embryo/larva [3], 0%; in the assay with Danio rerio embryo/larva [4] it was 0%; in the assay on Danio rerio embryo/larva [5], 0%; in the assay with Danio rerio embryo/larva [6], 16.7%. In addition, the results for the max % larvae with Danio rerio embryo/larva [7] and in the assay with Danio rerio embryo/larva [8] were 75% and 4.17%, respectively.

On to `O=P(O)(O)CCC(F)(F)C(F)(F)C(F)(F)C(F)(F)C(F)(F)C(F)(F)F` [2-(Perfluorohexyl)ethylphosphonic acid] (max tested concentration (log10 uM): 2), for which the max % larvae in the assay on Danio rerio embryo/larva [1] stood at 20%; in the assay on Danio rerio embryo/larva [2] it was 0%; in the assay with Danio rerio embryo/larva [3] it was 0%; in the assay on Danio rerio embryo/larva [4] it was 0%; with Danio rerio embryo/larva [5], 0%; in the assay with Danio rerio embryo/larva [6] it was 60%. Moreover, the max % larvae with Danio rerio embryo/larva [7] stood at 40%; in the assay with Danio rerio embryo/larva [8], 10%.

On to `C=C(C)C(=O)OCC(F)(F)C(F)(F)C(F)(F)F` [(Perfluoropropyl)methyl methacrylate] (max tested concentration (log10 uM): 2), for which the max % larvae in the assay on Danio rerio embryo/larva [1] came out at 8.33%; in the assay on Danio rerio embryo/larva [2], 0%; in the assay on Danio rerio embryo/larva [3], 4.17%; in the assay with Danio rerio embryo/larva [4] it was 0%; in the assay with Danio rerio embryo/larva [5], 4.17%; with Danio rerio embryo/larva [6], 8.33%. The max % larvae is 8.33% in the assay with Danio rerio embryo/larva [7] and 4.17% in the assay on Danio rerio embryo/larva [8].

As to `NC(=O)C(F)(F)C(F)(F)C(F)(F)F` [Heptafluorobutyramide] (max tested concentration (log10 uM): 2), the max % larvae in the assay on Danio rerio embryo/larva [1] was found to be 0%; in the assay on Danio rerio embryo/larva [2], 0%; in the assay on Danio rerio embryo/larva [3], 0%; with Danio rerio embryo/larva [4], 0%; in the assay on Danio rerio embryo/larva [5] it was 0%; in the assay with Danio rerio embryo/larva [6], 8.33%. For the same compound, the max % larvae in the assay with Danio rerio embryo/larva [7] came out at 10%; in the assay on Danio rerio embryo/larva [8], 0%.

`O=S(=O)(Cl)C(F)(F)C(F)(F)C(F)(F)C(F)(F)C(F)(F)C(F)(F)C(F)(F)C(F)(F)F` [Perfluoro-1-octanesulfonyl chloride] (max tested concentration (log10 uM): 2): the max % larvae was determined as 100% with Danio rerio embryo/larva [1]; 25% in the assay on Danio rerio embryo/larva [2]; 100% in the assay on Danio rerio embryo/larva [3]; 0% in the assay on Danio rerio embryo/larva [4]; 0% with Danio rerio embryo/larva [5]; 100% in the assay on Danio rerio embryo/larva [6]. The results for the max % larvae with Danio rerio embryo/larva [7] and with Danio rerio embryo/larva [8] were 100% and 25%, respectively.

As for `OCC(F)(F)C(F)(F)C(F)(F)C(F)(F)C(F)(F)C(F)(F)F` [6:1 Fluorotelomer alcohol] (max tested concentration (log10 uM): 2), the max % larvae amounted to 25% in the assay on Danio rerio embryo/larva [1]; 12.5% with Danio rerio embryo/larva [2]; 12.5% in the assay on Danio rerio embryo/larva [3]; 16.7% in the assay with Danio rerio embryo/larva [4]; 0% in the assay on Danio rerio embryo/larva [5]; 25% in the assay on Danio rerio embryo/larva [6]. Moreover, the max % larvae in the assay on Danio rerio embryo/larva [7] turned out to be 25%; in the assay on Danio rerio embryo/larva [8] it was 4.17%.

Take `C=CC(=O)OCC(F)(F)C(F)(F)C(F)(F)C(F)(F)C(F)(F)C(F)(F)C(F)(F)C(F)F` [1H,1H,9H-Perfluorononyl acrylate]: in the assay on Danio rerio embryo/larva [9], the “max % larvae unhatched across tested concentrations” value was 0%. In the assay on Danio rerio embryo/larva [10], this compound yielded a max % larvae of 16.7%.

With `O=S(=O)(O)C(F)(F)C(F)(F)C(F)(F)C(F)(F)C(F)(F)C(F)(F)C(F)(F)F` [Perfluoroheptanesulfonic acid] (max tested concentration (log10 uM): 1.90309), the max % larvae with Danio rerio embryo/larva [1] was determined as 100%; in the assay with Danio rerio embryo/larva [2], 8.33%; with Danio rerio embryo/larva [3] it was 37.5%; with Danio rerio embryo/larva [4], 50%; with Danio rerio embryo/larva [5], 16.7%; in the assay on Danio rerio embryo/larva [6], 91.7%. In addition, the values for the max % larvae with Danio rerio embryo/larva [7] and with Danio rerio embryo/larva [8] were 100% and 50%, respectively.
